# Measured values: PubChem BioAssay (NCI)
#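 Values below derive from 48-hour exposures of cells grown in 96-well plates, with endpoints linearly interpolated between the two concentrations bracketing the appropriate inhibition level. The concentration for full growth arrest is given as TGI.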
# Experiments:
# Test in all cases: NCI-60 cell line screen, 48 h
# TK-10 renal = test system: TK-10 renal
# HCC-2998 colon = test system: HCC-2998 colon
# HOP-92 NSCLC = test system: HOP-92 NSCLC
# DU-145 prostate = test system: DU-145 prostate
# MCF7 breast = test system: MCF7 breast
# UO-31 renal = test system: UO-31 renal
# SK-MEL-2 melanoma = test system: SK-MEL-2 melanoma
# K-562 leukemia = test system: K-562 leukemia
# UACC-62 melanoma = test system: UACC-62 melanoma
# NCI-H460 lung = test system: NCI-H460 lung
# MDA-MB-435 = test system: MDA-MB-435
# A498 renal = test system: A498 renal
# M14 melanoma = test system: M14 melanoma
# OVCAR-5 ovarian = test system: OVCAR-5 ovarian
# SF-295 CNS = test system: SF-295 CNS
# A549 NSCLC = test system: A549 NSCLC
# IGROV1 ovarian = test system: IGROV1 ovarian
SMILES,TGI (TK-10 renal) [µM],TGI (HCC-2998 colon) [µM],TGI (HOP-92 NSCLC) [µM],TGI (DU-145 prostate) [µM],TGI (MCF7 breast) [µM],TGI (UO-31 renal) [µM],TGI (SK-MEL-2 melanoma) [µM],TGI (K-562 leukemia) [µM],TGI (UACC-62 melanoma) [µM],TGI (NCI-H460 lung) [µM],TGI (MDA-MB-435) [µM],TGI (A498 renal) [µM],TGI (M14 melanoma) [µM],TGI (OVCAR-5 ovarian) [µM],TGI (SF-295 CNS) [µM],TGI (A549 NSCLC) [µM],TGI (IGROV1 ovarian) [µM]
Cc1cccc2c(N)c3cccc(C(=O)NCCNCCN)c3nc12,95.4,> 40.8,> 71.8,> 72.4,> 100,51.5,28.5,> 100,39.8,19.8,> 78.8,> 55.9,> 100,> 100,> 100,20.4,> 100
CN(C)/C=N/c1cc(=O)n(C)c(=O)n1C,> 100,> 100,> 100,> 100,> 100,> 100,> 100,> 100,> 100,> 100,> 100,> 100,> 100,> 100,> 100,> 100,> 100
O=C(Cc1csc2[n+]1C(=O)/C(=C/c1ccc(Cl)cc1)S2)Nc1ccccc1,87.7,39.3,78.4,> 100,66.1,> 100,37,> 100,32,48.8,95,40.1,> 100,80.9,> 100,84.6,> 100
CC(=O)OC[C@@]1(C)[C@@H]2[C@@H]3[C@@]4(CO[C@]3(C)C(=O)[C@@]3(OC(C)=O)C[C@H](C)[C@H](OC(C)=O)[C@@H]3[C@H]4OC(C)=O)[C@H](OC(=O)c3ccccc3)C[C@@H]21,> 100,> 100,> 100,> 100,> 100,> 100,> 100,> 100,> 100,> 100,> 100,> 100,> 100,> 100,> 100,> 100,> 100
COc1ccc(/C(=N/Nc2nc3ccccc3n2Cc2ccccc2)C(=O)O)cc1,> 100,48.3,49.1,> 100,51.2,76.5,> 100,68.5,21.4,21.4,> 100,44.5,38.9,> 100,> 100,> 100,40.7
COc1cc2c(SCCN(C)C)nc3ccccc3c2c2ccccc12,7.23,2.88,5.83,15.8,3.02,8.09,4.03,> 100,3.12,3.33,3.3,35.8,3.46,4.03,3.45,3.08,2.77
